Source: US5106407A, “Iodones and methods for antimicrobial use” (priority 1989, dated 1992)
≈ marks a conversion by molar mass, not a printed value. Where two headings read alike, the source gives them in different places. Blank lines part the entries; values can stand above or below the molecule they belong to.

Tests used:
Experiment in all cases: minimum inhibitory concentration (MIC), agar dilution
Type in all cases: cell-based
Enterobacter aerogenes = system: Enterobacter aerogenes
Protocol: (§1) The minimum inhibitory concentration (MIC) for the compound of Example 19, i.e., (2-nitrophenyl)-iodonium 2,2-dimethyl-4,6-dioxo-1,3-dioxan-5-ylide was determined for 9 bacteria (using nutrient agar) and 5 yeast and fungi (using malt yeast agar). A one percent solution of this test compound (i.e., the compound of Example 19) was prepared in a mixture of acetone-water. Nutrient agar was prepared at pH 6.8 using deionized water according to standard Difco procedures. Malt yeast agar was prepared by adding 3 g Bacto yeast extract and 42 g Bacto Malt agar per liter of deionized water. The agar (nutrient agar when testing with bacteria and malt yeast agar when testing with yeast and fungi) was dispensed in 30 mL aliquots into 25×200 millimeter (mm) test tubes, capped and autoclaved for 15 min at 115° C. The test tubes containing the agar were cooled in a water bath until the temperature of the agar was 48° C. and then an appropriate amount of the one percent solution of the test compound was added (except in the controls where no test compound was added with the acetone-water) to the respective test tubes so that final concentrations of 500, 250, 100, 50, 25, 10, 5, 2.5, 1.0 and 0 parts per million (ppm) of the test compound in the agar were obtained. The agar solutions were each mixed and poured into individual petri plates so that each petri plate contained agar having a known concentration of test compound dispersed therein. After drying for 24 hr, the petri plates were inoculated with bacteria when the petri plates contained nutrient broth agar or with fungi and yeast when the petri plates contained malt yeast agar.
(§2) The inoculation with bacteria was accomplished using the following procedure. Twenty-four hr cultures of each of the bacteria were prepared by incubating the respective bacteria in tubes containing nutrient broth for 24 hr at 30° C. in a shaker. Dilutions of each of the 24 hr cultures were made so that 9 separate suspensions (one for each of the 9 test bacteria) were made, each containing about 10^8 colony forming units (CFU) per mL of suspension of a particular bacteria. Aliquots of 0.3 mL of each of the above suspensions were used to fill individual wells of a Steer's Replicator. For each microbial suspension, 0.3 mL was used to fill 3 wells (i.e., 3 wells of 0.3 mL each) so that for the 9 different bacteria 27 wells were filled. The Steer's Replicator was then used to inoculate the petri plates.
(§3) The petri plates were incubated at 30° C. for 48 hr and then read to determine if the test compound (i.e., the compound of Example 19) which was incorporated into the agar prevented growth of the respective bacteria. The minimum inhibitory concentration (MIC) for each bacteria was defined as the lowest concentration of the test compound which prevented growth of that bacteria.
(§4) In a similar procedure, the MIC (in ppm) of the compound of Example 11 (i.e., (2-nitrophenyl)-iodonium 2,6-dioxocyclohexylide) for various organisms was determined at an acid pH (about 6.8) and at an alkaline pH (about 8.2).
(§5) Using similar procedures, the MIC's (in ppm) of various compounds of Formula I and/or Formula II were determined for the organisms Enterobacter aerogenes and Bacillus subtilis in a neutral solution (pH about 6.8) and in an alkaline medium (pH about 8.2).

Bacillus subtilis = system: Bacillus subtilis
Protocol: as §1, §2, §3, §4, §5

Staphylococcus aureus = conditions: ATCC 8538
Protocol: as §1, §2, §3, §4

[1] = system: Pseudomonas aeruginosa PRD-10; conditions: ATCC 15442
Protocol: as §1, §2, §3, §4

Klebsiella pneumoniae = conditions: ATCC 8308
Protocol: as §1, §2, §3, §4

Escherichia coli = conditions: ATCC 11229
Protocol: as §1, §2, §3, §4

Pseudomonas aeruginosa = conditions: ATCC 10145
Protocol: as §1, §2, §3, §4

Salmonella choleraesuis = system: Salmonella choleraesuis
Protocol: as §1, §2, §3, §4

Proteus vulgaris = conditions: ATCC 881
Protocol: as §1, §2, §3, §4

[2] = Klebsiella aerogenes, alkaline growth medium (pH = 8.2), read-out: MIC (AEA)
[3] = Klebsiella aerogenes, neutral growth medium (pH = 6.8), read-out: MIC (NEA)
[4] = Bacillus subtilis, alkaline growth medium (pH = 8.2), read-out: MIC (ABS)
[5] = Bacillus subtilis, neutral growth medium (pH = 6.8), read-out: MIC (NBS)

MIC (Enterobacter aerogenes; ATCC 13048, Alkaline Medium (pH about 8.2)): ≤ 1.0 ppm | MIC (Enterobacter aerogenes; Klebsiella aerogenes, ATCC13048, ATCC 13048, Neutral Medium (pH about 6.8), read-out: MIC): ≤ 1 µg/mL | MIC (Bacillus subtilis; ATCC 8473, Alkaline Medium (pH about 8.2)): ≤ 1.0 ppm | MIC (Bacillus subtilis; Bacillus subtilis, ATCC8473, ATCC 8473, Neutral Medium (pH about 6.8), read-out: MIC): ≤ 1 µg/mL | MIC (Staphylococcus aureus; Alkaline Medium (pH about 8.2)): ≤ 1.0 ppm | MIC (Staphylococcus aureus; Staphylococcus aureus, ATCC8538, Neutral Medium (pH about 6.8), read-out: MIC): ≤ 1 µg/mL | MIC ([1]; Alkaline Medium (pH about 8.2)): ≤ 1.0 ppm | MIC ([1]; Pseudomonas aeruginosa, ATCC15442, Neutral Medium (pH about 6.8), read-out: MIC): ≤ 1 µg/mL | MIC (Klebsiella pneumoniae; Alkaline Medium (pH about 8.2)): ≤ 1.0 ppm | MIC (Klebsiella pneumoniae; Klebsiella pneumoniae, ATCC8308, Neutral Medium (pH about 6.8), read-out: MIC): ≤ 1 µg/mL | MIC (Escherichia coli; Alkaline Medium (pH about 8.2)): ≤ 1.0 ppm | MIC (Escherichia coli; Escherichia coli, ATCC11229, Neutral Medium (pH about 6.8), read-out: MIC): ≤ 1 µg/mL | MIC (Pseudomonas aeruginosa; Alkaline Medium (pH about 8.2)): ≤ 1.0 ppm | MIC (Pseudomonas aeruginosa; Pseudomonas aeruginosa, ATCC10145, Neutral Medium (pH about 6.8), read-out: MIC): ≤ 1 µg/mL | MIC (Proteus vulgaris; Alkaline Medium (pH about 8.2)): ≤ 1.0 ppm | MIC (Proteus vulgaris; Proteus vulgaris, ATCC881, Neutral Medium (pH about 6.8), read-out: MIC): ≤ 1 µg/mL
Compound: O=C1CCCC(=O)[C-]1[I+]c1ccccc1[N+](=O)[O-] [Example 1, (2-nitrophenyl)-iodonium 2,6-dioxocyclohexylide]
MIC (Salmonella choleraesuis; ATCC 10708, Alkaline Medium (pH about 8.2)): ≤ 1.0 ppm | MIC (Salmonella choleraesuis; Salmonella enterica, ATCC 10708 / CHOLERAESUIS, Neutral Medium (pH about 6.8), read-out: MIC): ≤ 1 µg/mL

MIC (Enterobacter aerogenes; [2]): 500 µg/mL (≈ 1340 µM) | MIC (Enterobacter aerogenes; [3]): 100 µg/mL (≈ 268 µM) | MIC (Bacillus subtilis; [4]): 500 µg/mL (≈ 1340 µM) | MIC (Bacillus subtilis; [5]): 25 µg/mL (≈ 67 µM)
Compound: Cc1cc(=O)[c-]([I+]c2ccccc2[N+](=O)[O-])c(=O)o1 [Example 47, (2-Nitrophenyl)-iodonium 3,4-dihydro-6-methyl-2,4-dioxo-2H-pyran-3-ylide]

MIC (Enterobacter aerogenes; [2]): 250 µg/mL (≈ 636 µM) | MIC (Enterobacter aerogenes; [3]): 50 µg/mL (≈ 127 µM) | MIC (Bacillus subtilis; [4]): 25 µg/mL (≈ 63.6 µM) | MIC (Bacillus subtilis; [5]): ≤ 1 µg/mL
Compound: O=C1c2ccccc2C(=O)[C-]1[I+]c1ccccc1[N+](=O)[O-] [Example 48, (2-Nitrophenyl)-iodonium 2,3-dihydro-1,3-dioxo-1H-indan-2-ylide]
